From US9951060B2, “2-acylaminothiazole derivative or salt thereof” (ASTELLAS PHARMA INC., priority 2014, dated 2018)

Assays:
[1] = molecular target: human muscarinic M3 receptor (Homo sapiens, UniProt P20309)
[2] = molecular target: T1, human c-Mpl-introduced Ba/F3 cell (Homo sapiens, UniProt P40238); assay: Test Example 2: human c-Mpl-introduced Ba/F3 cell proliferative activity; format: cell-based; conditions: concentration exhibiting 30% proliferation; 100% = positive control (Example 315 of Patent Document 1) at 1 μM
T1 construct: expressed in transfected cells
T1 sequence (P40238 26-635): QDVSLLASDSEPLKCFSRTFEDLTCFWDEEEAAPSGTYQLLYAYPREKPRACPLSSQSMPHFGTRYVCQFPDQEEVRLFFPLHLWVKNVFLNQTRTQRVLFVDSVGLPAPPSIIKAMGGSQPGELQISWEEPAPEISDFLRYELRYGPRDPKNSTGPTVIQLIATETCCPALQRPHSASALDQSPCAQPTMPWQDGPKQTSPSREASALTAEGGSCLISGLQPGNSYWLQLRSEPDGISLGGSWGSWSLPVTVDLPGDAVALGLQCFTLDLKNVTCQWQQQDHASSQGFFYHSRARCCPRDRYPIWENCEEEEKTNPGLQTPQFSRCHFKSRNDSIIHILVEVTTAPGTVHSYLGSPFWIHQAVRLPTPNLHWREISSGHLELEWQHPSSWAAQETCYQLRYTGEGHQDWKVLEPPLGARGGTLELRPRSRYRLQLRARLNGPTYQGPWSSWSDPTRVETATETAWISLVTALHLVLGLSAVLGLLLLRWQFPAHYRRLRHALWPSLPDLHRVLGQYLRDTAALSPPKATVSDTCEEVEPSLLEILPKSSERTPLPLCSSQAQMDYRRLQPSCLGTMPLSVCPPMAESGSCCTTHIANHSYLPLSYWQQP
Experimental: Test Example 2: Evaluation of Human c-Mpl-Introduced Ba/F3 Cell Proliferative Activity
The human c-Mpl-introduced Ba/F3 cell proliferation action was measured by the following method.
As a positive control, 1-(5-{[4-(4-chlorothiophen-2-yl)-5-{[(2R)-2-methylpyrrolidin-1-yl]methyl}-1,3-thiazol-2-yl]carbamoyl}-3-fluoropyridin-2-yl)piperidine-4-carboxylic acid hydrochloride disclosed as Example 315 in Patent Document 1, represented by the formula (A1) above, was used. Further, it is known that the compound has a good human c-Mpl-introduced Ba/F3 cell proliferative activity as disclosed in Table 1 in Patent Document 1.
a) Construction of Vector Expressing Human c-Mpl Receptor
A human c-Mpl receptor gene (GenBank Accession No.: M90102.1) was transfected into an expression vector pEF-BOS (Nucleic Acids Research, 18: pp 5322 (1990)).
b) Construction of Cell Stably Expressing Human c-Mpl Receptor
A vector expressing a human c-Mpl receptor was introduced into a Ba/F3 cell (RIKEN BRC: RCB0805). For the introduction, an electroporation method was used. pEF-BOS-c-mpl (10 μg), pSV2bsr (1 μg, Kaken Pharmaceutical Co., Ltd.) and 1×10^7 of Ba/F3 cells were put into cuvettes with a gap width of 0.4 cm and electroporated under a condition of 1.5 kV (25 μF) in a Gene Pulser (registered trademark) (BioRad). The cells were incubated in an RPMI-1640 medium supplemented with a 0.5% WEHI conditioned medium (BD Biosciences) and 10% fetal bovine serum for 3 days, and thereafter, and the cells were incubated for 30 days in an RPMI-1640 medium, to which 10 μg/mL blasticidin had been further added, thereby acquiring a drug-resistant clone.
c) Measurement of Cell Proliferative Activity
The cells obtained in b) above were dispensed into an RPMI-1640 medium supplemented with a 0.5% WEHI conditioned medium and 10% fetal bovine serum, and used. The day before the experiment, the test substances (final concentration of 100 nM to 10 μM) which had been dissolved in a medium for assay (an RPMI-1640 medium supplemented with 10% fetal bovine serum) were added to a 384-well plate (Model No. 781185, Greiner bio-one). The cells after the medium had been replaced with the medium for assay were dispensed to a 384-well plate to which the test substance had been added, to 1×10^4 cells/well, and incubated overnight at 37° C. and 5% CO2. On the experiment day, a solution of a Cell counting kit (Dojindo Laboratories) was added to each well of the 384-well plate, and the cells were incubated for about 5 hours at 37° C. and 5% CO2. Thereafter, the absorbance (an absorbance wavelength of 450 nm) of each well was measured using Safire^2 (registered trademark) (TECAN), and used as an index for the number of cells. Further, as a negative control, a well to which the test substances had not been added was prepared.
By taking the absorbance of the well to which the test substance had been not added as 0% and taking the absorbance in a case where the positive control had been added to a final concentration of 1 μM as 100%, a cell proliferation rate (%) was calculated from the absorbance of the well to which the test substance had been added.

Chain of human muscarinic M3 receptor (P20309 whole entry): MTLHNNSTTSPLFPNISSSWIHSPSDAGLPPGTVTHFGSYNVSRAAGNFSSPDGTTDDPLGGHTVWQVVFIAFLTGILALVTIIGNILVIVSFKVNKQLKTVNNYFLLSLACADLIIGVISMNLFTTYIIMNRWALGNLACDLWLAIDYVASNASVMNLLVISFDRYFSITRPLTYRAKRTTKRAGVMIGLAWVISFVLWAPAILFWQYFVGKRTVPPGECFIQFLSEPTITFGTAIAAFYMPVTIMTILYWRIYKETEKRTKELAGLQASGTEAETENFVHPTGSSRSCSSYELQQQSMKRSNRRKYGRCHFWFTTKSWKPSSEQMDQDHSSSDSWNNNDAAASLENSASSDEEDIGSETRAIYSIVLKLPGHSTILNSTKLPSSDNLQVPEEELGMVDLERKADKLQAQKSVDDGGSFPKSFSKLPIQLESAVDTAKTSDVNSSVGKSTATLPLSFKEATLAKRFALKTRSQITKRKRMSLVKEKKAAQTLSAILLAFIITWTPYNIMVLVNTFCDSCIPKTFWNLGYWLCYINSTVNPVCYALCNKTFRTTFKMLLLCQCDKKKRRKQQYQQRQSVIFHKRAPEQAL

| muscarinic M3 receptor-positive allosteric modulator activity, 1 μM (-fold shift) [1] | muscarinic M3 receptor-positive allosteric modulator activity, 10 μM (-fold shift) [1] | human c-Mpl-introduced Ba/F3 cell proliferative activity EC30 [2] [µM] | Compound |
| --- | --- | --- | --- |
| 15 -fold shift | 109 -fold shift | >10 | C[C@@H]1CCCN1Cc1sc(NC(=O)c2cnc(N3CCN(CCC(=O)O)C[C@@H]3C)cn2)nc1-c1cc(F)cc(C(F)(F)F)c1 [Example 17] |
| 40 -fold shift | 182 -fold shift | >10 | COc1ncc(-c2nc(NC(=O)c3cnc(N4CCN(CCC(=O)O)CC4)cn3)sc2CN2CCC[C@H]2C)cc1C(F)(F)F [Example 33] |
| 37 -fold shift | 195 -fold shift | >10 | CC[C@@H]1CCCN1Cc1sc(NC(=O)c2cnc(N3CCN(CC(=O)O)CC3)cn2)nc1-c1cc(F)cc(C(F)(F)F)c1 [Example 62] |
| 39 -fold shift | 186 -fold shift | >10 | C[C@@H]1CCCN1Cc1sc(NC(=O)c2cnc(N3CCN(CCC(=O)O)CC3)cn2)nc1-c1ccc(C2CC2)c(C(F)(F)F)c1 [Example 63] |
| 28 -fold shift | 151 -fold shift | >10 | Cc1cc(-c2nc(NC(=O)c3cnc(N4CCN(CC(=O)O)CC4)cn3)sc2CN2CCC[C@H]2C)cc(C(F)(F)F)c1 [Example 71] |
| 30 -fold shift | 203 -fold shift | >10 | COc1c(F)cc(-c2nc(NC(=O)c3cnc(N4CCN(CCC(=O)O)C[C@H]4C)cn3)sc2CN2CCC[C@H]2C)cc1C(F)(F)F [Example 92] |
| 82 -fold shift | 229 -fold shift | 3.2 | C[C@@H]1CCCN1Cc1sc(NC(=O)c2cnc(N3CCN(CCC(=O)O)C[C@@H]3C)cn2)nc1-c1cc(C(F)(F)F)cs1 [Example 100] |
| 202 -fold shift | 307 -fold shift | 1.7 | C[C@@H]1CCCN1Cc1sc(NC(=O)c2cnc(N3CCN(CC(=O)O)CC3)cn2)nc1-c1cc(C(F)(F)F)cs1 [Example 103] |
| 41 -fold shift | 270 -fold shift | >10 | CCN(Cc1sc(NC(=O)c2cnc(N3CCN(CCC(=O)O)CC3)cn2)nc1-c1cc(F)cc(C(F)(F)F)c1)C(C)C [Example 106] |
| 56 -fold shift | 169 -fold shift | >10 | CN(Cc1sc(NC(=O)c2cnc(N3CCN(CCC(=O)O)CC3)cn2)nc1-c1cc(F)cc(C(F)(F)F)c1)CC1CC1 [Example 108] |

More lines, now with the values behind:

| Compound | muscarinic M3 receptor-positive allosteric modulator activity, 1 μM (-fold shift) [1] | muscarinic M3 receptor-positive allosteric modulator activity, 10 μM (-fold shift) [1] | human c-Mpl-introduced Ba/F3 cell proliferative activity EC30 [2] [µM] |
| --- | --- | --- | --- |
| CC(C(=O)O)N1CCN(c2cnc(C(=O)Nc3nc(-c4cc(Cl)cc(C(F)(F)F)c4)c(CN4CCC[C@H]4C)s3)cn2)CC1 (stereo partly drawn) [Example 12] | 33 -fold shift | 178 -fold shift | >10 |
| C[C@@H]1CCCN1Cc1sc(NC(=O)c2cnc(N3CCN(CCC(=O)O)CC3)cn2)nc1-c1cc(Br)cc(C(F)(F)F)c1 [Example 27] | 31 -fold shift | 330 -fold shift | >10 |
| CC[C@@H]1CCCN1Cc1sc(NC(=O)c2cnc(N3CCN(CC(=O)O)CC3)cn2)nc1-c1ccc(OC)c(C(F)(F)F)c1 [Example 41] | 43 -fold shift | 160 -fold shift | >10 |
| CCOc1ccc(-c2nc(NC(=O)c3cnc(N4CCN(CCC(=O)O)CC4)cn3)sc2CN2CCC[C@H]2C)cc1C(F)(F)F [Example 54] | 36 -fold shift | 134 -fold shift | >10 |
| CC[C@@H]1CCCN1Cc1sc(NC(=O)c2cnc(N3CCN(CCC(=O)O)CC3)cn2)nc1-c1cc(C2CC2)cc(C(F)(F)F)c1 [Example 69] | 27 -fold shift | 177 -fold shift | >10 |
| C[C@@H]1CN(c2cnc(C(=O)Nc3nc(-c4cc(Cl)cs4)c(CN4CCC[C@H]4C)s3)cn2)CCN1CCC(=O)O [Example 79] | 60 -fold shift | 171 -fold shift | 1.8 |
| CC[C@@H]1CCCN1Cc1sc(NC(=O)c2cnc(N3CCN(CCC(=O)O)[C@@H](C)C3)cn2)nc1-c1cc(Cl)cs1 [Example 81] | 89 -fold shift | 94 -fold shift | 0.5 |
| COc1c(F)cc(-c2nc(NC(=O)c3cnc(N4CCN(CCC(=O)O)C[C@@H]4C)cn3)sc2CN2CCC[C@H]2C)cc1C(F)(F)F [Example 91] | 19 -fold shift | 139 -fold shift | >10 |
| C[C@@H]1CCCN1Cc1sc(NC(=O)c2cnc(N3CCN(CCC(=O)O)CC3)cn2)nc1-c1cc(Br)cs1 [Example 97] | 55 -fold shift | 121 -fold shift | 2.8 |
| C[C@@H]1CCCN1Cc1sc(NC(=O)c2cnc(N3CCN(CCC(=O)O)C[C@H]3C)cn2)nc1-c1cc(Br)cs1 [Example 101] | 64 -fold shift | 112 -fold shift | 2.7 |
| CC(C)CN(C)Cc1sc(NC(=O)c2cnc(N3CCN(CCC(=O)O)CC3)cn2)nc1-c1cc(F)cc(C(F)(F)F)c1 [Example 107] | 73 -fold shift | 318 -fold shift | >10 |
